The record followed here is the supplement of paper PMC10307832.

Compound in test [1]: COc1cc2nc(N3CCCN(C)CC3)nc(NC3CCN(Cc4ccccc4)CC3)c2cc1OC + CC1(C)CCC(c2ccc(Cl)cc2)=C(CN2CCN(c3ccc(C(=O)NS(=O)(=O)c4ccc(N[C@H](CCN5CCOCC5)CSc5ccccc5)c(S(=O)(=O)C(F)(F)F)c4)cc3)CC2)C1 [Navitoclax] (partner 0.5 µM)
The experiment in a line: relative viability (nuclei count vs DMSO), 5 days (fraction); higher = more cells survive. The method, boiled down:
(§1)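 Lung cancer cell lines, seeded in 1536-well plates, were treated the following day by pin tool with a single drug or with five library-drug doses (not always all listed) in √10 steps on top of a fixed anchor-drug dose. Cells were fixed and nuclei stained in one step after 5 days, and nuclei were counted. Relative viability is the nuclei count for treated wells divided by that for vehicle wells, reported as medians of duplicate plates.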

Compound in the test “AZD6482 + Foretinib”: Cc1cc([C@@H](C)Nc2ccccc2C(=O)O)c2nc(N3CCOCC3)cc(=O)n2c1 [AZD6482] + COc1cc2c(Oc3ccc(NC(=O)C4(C(=O)Nc5ccc(F)cc5)CC4)cc3F)ccnc2cc1OCCCN1CCOCC1 [Foretinib] (partner 0.25 µM)
The test is described as above. Summed up: as §1

In the case of EMC-BAC-2, the relative viability in test [1] (first compound 0.2 µM) is 1.16; in test [1] (first compound 0.6325 µM) it was 1.14; in test [1] (first compound 2 µM) it was 1.14; in test [1] (first compound 6.325 µM), 1.17; with AZD6482 + Foretinib (first compound 0.08 µM), 0.861; with AZD6482 + Foretinib (first compound 0.253 µM), 0.94. Also, the relative viability with AZD6482 + Foretinib (first compound 0.8 µM) is 0.969; with AZD6482 + Foretinib (first compound 2.53 µM), 0.718; in the test with AZD6482 + Foretinib (first compound 8 µM) it was 0.698.
In the case of LK-2, the relative viability in test [1] (first compound 0.2 µM) was 0.91; in test [1] (first compound 0.6325 µM), 0.843; in test [1] (first compound 2 µM) it was 1.16; in test [1] (first compound 6.325 µM), 0.637; with AZD6482 + Foretinib (first compound 0.08 µM) it was 1.3; with AZD6482 + Foretinib (first compound 0.253 µM), 1.08. In addition, the relative viability in the test with AZD6482 + Foretinib (first compound 0.8 µM) came out at 1.22; in the test with AZD6482 + Foretinib (first compound 2.53 µM), 0.822; with AZD6482 + Foretinib (first compound 8 µM) it was 0.948.
As for NCI-H2126, the relative viability was found to be 0.847 in test [1] (first compound 0.2 µM); 0.777 in test [1] (first compound 0.6325 µM); 0.804 in test [1] (first compound 2 µM); 0.81 in test [1] (first compound 6.325 µM); 1.08 with AZD6482 + Foretinib (first compound 0.08 µM); 0.954 with AZD6482 + Foretinib (first compound 0.253 µM). In addition, the results for the relative viability in the test with AZD6482 + Foretinib (first compound 0.8 µM), with AZD6482 + Foretinib (first compound 2.53 µM) and with AZD6482 + Foretinib (first compound 8 µM) were 1.12, 0.757 and 0.724, respectively.
For the cell line NCI-H3122, the relative viability in test [1] (first compound 0.2 µM) was 1.01; in test [1] (first compound 0.6325 µM), 1.02; in test [1] (first compound 2 µM), 1.05; in test [1] (first compound 6.325 µM), 0.992; with AZD6482 + Foretinib (first compound 0.08 µM) it was 0.937; with AZD6482 + Foretinib (first compound 0.253 µM) it was 0.846. The relative viability was 1.09 with AZD6482 + Foretinib (first compound 0.8 µM), 0.946 with AZD6482 + Foretinib (first compound 2.53 µM) and 0.926 in the test with AZD6482 + Foretinib (first compound 8 µM).
On to NCI-H1975, for which the relative viability was found to be 1.2 in test [1] (first compound 0.2 µM); 1.18 in test [1] (first compound 0.6325 µM); 1.21 in test [1] (first compound 2 µM); 1.05 in test [1] (first compound 6.325 µM); 0.889 with AZD6482 + Foretinib (first compound 0.08 µM); 0.872 with AZD6482 + Foretinib (first compound 0.253 µM). Besides, the relative viability with AZD6482 + Foretinib (first compound 0.8 µM) was determined as 0.951; with AZD6482 + Foretinib (first compound 2.53 µM), 0.709; with AZD6482 + Foretinib (first compound 8 µM) it was 0.558.
Take NCI-H1944: the relative viability in test [1] (first compound 0.2 µM) is 1.1; in test [1] (first compound 0.6325 µM), 1.02; in test [1] (first compound 6.325 µM) it was 0.982; with AZD6482 + Foretinib (first compound 0.08 µM), 0.866; in the test with AZD6482 + Foretinib (first compound 0.253 µM), 0.892; with AZD6482 + Foretinib (first compound 0.8 µM), 0.872. Also, the relative viability with AZD6482 + Foretinib (first compound 2.53 µM) is 0.686; in the test with AZD6482 + Foretinib (first compound 8 µM), 0.697.
For the cell line LU99A, the relative viability was 0.899 in test [1] (first compound 0.2 µM); 0.689 in test [1] (first compound 0.6325 µM); 0.625 in test [1] (first compound 2 µM); 0.815 in test [1] (first compound 6.325 µM); 0.829 with AZD6482 + Foretinib (first compound 0.08 µM); 0.828 with AZD6482 + Foretinib (first compound 0.253 µM). In addition, the relative viability with AZD6482 + Foretinib (first compound 0.8 µM) was determined as 0.77; with AZD6482 + Foretinib (first compound 2.53 µM), 0.65; with AZD6482 + Foretinib (first compound 8 µM) it was 0.633.
Take SW 1573: the relative viability in test [1] (first compound 0.2 µM) came to 0.941; in test [1] (first compound 0.6325 µM) it was 0.868; in test [1] (first compound 2 µM), 1.08; in test [1] (first compound 6.325 µM), 0.755; in the test with AZD6482 + Foretinib (first compound 0.08 µM), 0.792; in the test with AZD6482 + Foretinib (first compound 0.253 µM), 0.776. Besides, the relative viability turned out to be 0.862 with AZD6482 + Foretinib (first compound 0.8 µM), 0.726 with AZD6482 + Foretinib (first compound 2.53 µM) and 0.608 in the test with AZD6482 + Foretinib (first compound 8 µM).
For the cell line NCI-H2347, the relative viability in test [1] (first compound 0.2 µM) came to 0.764; in test [1] (first compound 0.6325 µM), 0.771; in test [1] (first compound 2 µM) it was 0.873; in test [1] (first compound 6.325 µM) it was 0.693; with AZD6482 + Foretinib (first compound 0.08 µM), 0.646; in the test with AZD6482 + Foretinib (first compound 0.253 µM), 0.569. In addition, the relative viability with AZD6482 + Foretinib (first compound 0.8 µM) was found to be 0.946; in the test with AZD6482 + Foretinib (first compound 2.53 µM) it was 0.557; in the test with AZD6482 + Foretinib (first compound 8 µM), 0.74.
With NCI-H2009, the relative viability came to 1.22 in test [1] (first compound 0.2 µM); 1.17 in test [1] (first compound 0.6325 µM); 1.2 in test [1] (first compound 2 µM); 1.15 in test [1] (first compound 6.325 µM); 1.12 with AZD6482 + Foretinib (first compound 0.08 µM); 1.24 with AZD6482 + Foretinib (first compound 0.253 µM). In addition, the relative viability with AZD6482 + Foretinib (first compound 0.8 µM) was determined as 1.24; with AZD6482 + Foretinib (first compound 2.53 µM), 0.83; with AZD6482 + Foretinib (first compound 8 µM) it was 0.747.
As to HCC-15, the relative viability in test [1] (first compound 0.2 µM) stood at 0.725; in test [1] (first compound 0.6325 µM) it was 0.749; in test [1] (first compound 2 µM), 0.765; in test [1] (first compound 6.325 µM), 0.487; with AZD6482 + Foretinib (first compound 0.08 µM) it was 0.989; in the test with AZD6482 + Foretinib (first compound 0.253 µM), 0.882. For the same cell line, the relative viability with AZD6482 + Foretinib (first compound 0.8 µM) was 1.01; in the test with AZD6482 + Foretinib (first compound 2.53 µM), 0.853; with AZD6482 + Foretinib (first compound 8 µM), 0.988.
Turning to HCC-44, the relative viability was determined as 0.908 in test [1] (first compound 0.2 µM), 0.968 in test [1] (first compound 0.6325 µM), 1.02 in test [1] (first compound 2 µM) and 0.945 in test [1] (first compound 6.325 µM).
For the cell line COR-L23, the relative viability in test [1] (first compound 0.2 µM) amounted to 1.05; in test [1] (first compound 0.6325 µM), 1.08; in test [1] (first compound 2 µM), 1.15; in test [1] (first compound 6.325 µM), 1.08; with AZD6482 + Foretinib (first compound 0.08 µM), 0.888; with AZD6482 + Foretinib (first compound 0.253 µM), 1.04. Also, the relative viability with AZD6482 + Foretinib (first compound 0.8 µM) is 1.03; in the test with AZD6482 + Foretinib (first compound 2.53 µM) it was 0.81; with AZD6482 + Foretinib (first compound 8 µM) it was 0.799.
In the case of HCC-78, the relative viability came out at 0.844 in test [1] (first compound 0.2 µM); 0.779 in test [1] (first compound 0.6325 µM); 0.717 in test [1] (first compound 2 µM); 0.602 in test [1] (first compound 6.325 µM); 0.471 with AZD6482 + Foretinib (first compound 0.08 µM); 0.493 with AZD6482 + Foretinib (first compound 0.253 µM). For the same cell line, the relative viability was found to be 0.517 with AZD6482 + Foretinib (first compound 0.8 µM), 0.351 in the test with AZD6482 + Foretinib (first compound 2.53 µM) and 0.349 in the test with AZD6482 + Foretinib (first compound 8 µM).
With NCI-H1299, the relative viability amounted to 1.07 in test [1] (first compound 0.2 µM); 1.04 in test [1] (first compound 0.6325 µM); 1.09 in test [1] (first compound 2 µM); 1.02 in test [1] (first compound 6.325 µM); 1.06 with AZD6482 + Foretinib (first compound 0.08 µM); 1.13 with AZD6482 + Foretinib (first compound 0.253 µM). For the same cell line, the values for the relative viability with AZD6482 + Foretinib (first compound 0.8 µM), with AZD6482 + Foretinib (first compound 2.53 µM) and with AZD6482 + Foretinib (first compound 8 µM) were 1.31, 1.11 and 1.12, respectively.
